Data on three molecules can be found in publication doi:10.1101/2021.12.13.472376v1 (bioRxiv, 2021).

One data set deals with GBM. Conditions: GBM patients treated with radiotherapy combined with TMZ; ref Stupp et al., 2005; cited from earlier work.
A short description of data set [1]: Water solubility / dissolution of the peptide. It is filed as physicochemical.

As to `Cn1nnc2c(C(N)=O)ncn2c1=O` [TMZ], in the data set on GBM, the median survival is 14.6 months.

As for RQIKIWFQNRRMKWGGTALDWSWLQTE [NBD], the water solubility result in data set [1] is “poor”. Further, the “dissolution of 1 mg peptide in 1000 μL 10% DMSO DPBS” value in data set [1] (1 mg in 1000 μL 10% DMSO DPBS, only a mixture with loose precipitation obtained) is reported as “could not completely dissolve”.

YLGASVPSPDPLEPTGGTALDWSWLQTE [MTL-NBD]: in data set [1], the water solubility result is given as “good”. In addition, the “dissolution of 1 mg peptide in 200 μL normal saline or DPBS” value in data set [1] (1 mg in 200 μL normal saline or DPBS) is listed as “completely dissolve”.
